Experimental data as given in patent US20120148633A1, “BINARY AND TERTIARY GALVANIC PARTICULATES AND METHODS OF MANUFACTURING AND USE THEREOF” (priority 2009, published 2012).

What was measured:
[1] = system: acetic acid-induced writhes; assay: Acetic acid-induced writhing, oral administration; type: in vivo, Albino male CD-1 mice; details: 100 mg/kg orally 1 hour prior to i.p. acetic acid
Description: In this example, galvanic particulates produced by the process of Example 1 were evaluated for analgesic activity. Aspirin, a non-steroidal analgesic agent, which is known to show efficacy in this model, was included as a reference compound. Albino male CD-1 mice, weighing 24±2 g were used in the study. Galvanic particulates or aspirin were prepared in deionized water (DI Water) and were administered orally at a concentration of 100 mg/kg to mice 1 hour prior to injection of acetic acid. A […] of a 0.5% acetic acid solution was injected intraperitoneally, and the number of acetic acid-induced writhes were counted by an observer blinded to the treatment groups. A 50% decrease in the number of writhes indicated analgesic activity.

[2] = system: oxazolone-induced skin inflammation; assay: Murine model of contact hypersensitivity (oxazolone ear inflammation), topical; type: in vivo, Albino male CD-1 mice; details: 1 mg/ml, 20 μl to left ear 1 hour after oxazolone challenge; ear biopsy weight at 24 hours

SMILES: CC(=O)Oc1ccccc1C(=O)O [Aspirin]
- Analgesic Effectiveness (Percent Reduction Writhes) [1]: 56%
- Total Number of Writhes (Mean ± Std Dev) ([1]; vehicle 11.4 ± 6.1): 5.0 ± 3.6

SMILES: C[C@]12CCC(=O)C=C1CC[C@@H]1[C@@H]2[C@@H](O)C[C@@]2(C)[C@H]1CC[C@]2(O)C(=O)CO [Hydrocortisone]
- Percent Inhibition of Skin Inflammation [2]: 70.3% ± 6.6%
